{"source": "patent US12329171B1", "about": "“Natural food preservative” (IMAM MOHAMMAD IBN SAUD ISLAMIC UNIVERSITY, priority 2024, dated 2025)", "key": {"[1]": {"test_system": "S. aureus", "assay": "Well diffusion assay, antibacterial", "format": "cell-based, Staphylococcus aureus", "conditions": "10 μl", "excerpt": "(§1) The investigation focused on the antibacterial properties of extracts derived from onion peel, pomegranate peel, and chia seed, particularly when encapsulated in nanoformulations (OPE-CSNP and PPE-CSNP). The extracts, known for their richness in bioactive compounds like phenolic compounds, flavonoids, and tannins, were explored for potential health benefits against various microbes. The study employed the inhibition zone diameter to evaluate the effectiveness of these natural extracts in inhibiting microbial growth, thereby assessing their antimicrobial properties.\n(§2) Moreover, these composites show promise as food preservatives, potentially extending shelf life, given their moderate antimicrobial activity against B. cereus and S. aureus."}, "[2]": {"test_system": "B. cereus", "assay": "Well diffusion assay, antibacterial", "format": "cell-based, Bacillus cereus", "conditions": "10 μl", "excerpt": "as §1, §2"}}, "data": [{"compound": "CC1(C)S[C@@H]2[C@H](NC(=O)[C@H](N)c3ccccc3)C(=O)N2[C@H]1C(=O)O", "note": "[Ampicillin, ampicillin]", "values": [{"measurement": "Inhibition zone diameter (mm) S. aureus", "setting": "[1]", "value": 16, "unit": "mm"}, {"measurement": "Inhibition zone diameter (mm) B. cereus", "setting": "[2]", "value": 16, "unit": "mm"}]}, {"compound": "penicillin", "values": [{"measurement": "Inhibition zone diameter (mm) S. aureus", "setting": "[1]", "value": 14, "unit": "mm"}, {"measurement": "Inhibition zone diameter (mm) B. cereus", "setting": "[2]", "value": 14, "unit": "mm"}]}]}
